According to the supplement of paper PMC13380429:
± gives the standard deviation of the averaged measurements.

Legend:
Conditions in all cases: 72 h
[1] = tested on: Caco-2; experiment: relative viability EC50 (midpoint between 100% and the lowest measured viability); higher = less toxic
[2] = tested on: Vero E6; experiment: as above
[3] = tested on: Calu-3; experiment: as above
[4] = tested on: HepG2; experiment: as above
[5] = tested on: U2OS; experiment: as above
[6] = tested on: Caco-2; experiment: drug sensitivity score (DSS) for viability; higher = more toxic; extreme values may be limits of the assay
[7] = tested on: Vero E6; experiment: as above
[8] = tested on: Calu-3; experiment: as above
[9] = tested on: HepG2; experiment: as above
[10] = tested on: U2OS; experiment: as above
[11] = tested on: Caco-2; experiment: cell viability relative to DMSO; higher = less toxic
[12] = tested on: Vero E6; experiment: as above
[13] = tested on: Calu-3; experiment: as above
[14] = tested on: HepG2; experiment: as above
[15] = tested on: U2OS; experiment: as above

Row | Structure (SMILES) | relative viability EC50 [1] [µM] | relative viability EC50 [2] [µM] | relative viability EC50 [3] [µM] | relative viability EC50 [4] [µM] | relative viability EC50 [5] [µM] | drug sensitivity score [6] | drug sensitivity score [7] | drug sensitivity score [8] | drug sensitivity score [9] | drug sensitivity score [10] | cell viability ([11]; 1 nM) [%] | cell viability ([11]; 10 nM) [%] | cell viability ([11]; 100 nM) [%] | cell viability ([11]; 1000 nM) [%] | cell viability ([11]; 10000 nM) [%] | cell viability ([12]; 1 nM) [%] | cell viability ([12]; 10 nM) [%] | cell viability ([12]; 100 nM) [%] | cell viability ([12]; 1000 nM) [%] | cell viability ([12]; 10000 nM) [%] | cell viability ([13]; 1 nM) [%] | cell viability ([13]; 10 nM) [%] | cell viability ([13]; 100 nM) [%] | cell viability ([13]; 1000 nM) [%] | cell viability ([13]; 10000 nM) [%] | cell viability ([14]; 1 nM) [%] | cell viability ([14]; 10 nM) [%] | cell viability ([14]; 100 nM) [%] | cell viability ([14]; 1000 nM) [%] | cell viability ([14]; 10000 nM) [%] | cell viability ([15]; 1 nM) [%] | cell viability ([15]; 10 nM) [%] | cell viability ([15]; 100 nM) [%] | cell viability ([15]; 1000 nM) [%] | cell viability ([15]; 10000 nM) [%]
1 | CN1C(=O)C(N2CCCCC2)S/C1=C\C(=O)O (stereo not given) [ozolinone] | > 10 | > 10 | > 10 | > 10 | > 10 | 0 | 0 | 0 | 0 | 0 | 113 | 96.7 | 92.1 | 105 | 114 | 97.1 | 103 | 97 | 102 | 117 | 102 | 93.9 | 94.1 | 93.5 | 95 | 89.5 | 107 | 104 | 87.1 | 105 | 95.5 | 97.5 | 102 | 99.6 | 100
2 | C#CCN(C)Cc1ccccc1 [pargyline] | > 10 | > 10 | > 10 | > 10 | > 10 | 0 | 0 | 0 | 0 | 0 | 96 | 93 | 96.3 | 98.6 | 103 | 96.4 | 96.3 | 92.7 | 93.1 | 107 | 93.5 | 97.4 | 95.4 | 89.3 | 102 | 98.7 | 96.2 | 109 | 89.7 | 102 | 99.2 | 101 | 99.9 | 102 | 103
3 | FC(F)(F)C(F)(F)C(F)(F)C(F)(F)C(F)(F)C(F)(F)C(F)(F)C(F)(F)Br [perflubron] | > 10 | > 10 | > 10 | > 10 | > 10 | 0 | 0 | 0 | 0 | 0 | 97 | 98.9 | 91.8 | 103 | 91.2 | 109 | 101 | 102 | 92.4 | 96.7 | 87.9 | 108 | 98.1 | 102 | 93.4 | 104 | 102 | 99.9 | 96.4 | 105 | 98.1 | 100 | 94.1 | 104 | 97.1
4 | Nc1ccc(/N=N/c2ccccc2)c(N)n1 [phenazopyridine] | > 10 | > 10 | > 10 | > 10 | > 10 | 0 | 0.3 | 0 | 0 | 0 | 85.4 | 102 | 97 | 99.8 | 94 | 109 | 88.6 | 102 | 102 | 82.7 | 91.9 | 102 | 88.1 | 99.1 | 95.8 | 91.1 | 91.8 | 105 | 89.4 | 100 | 94 | 98.4 | 95.7 | 99.2 | 103
5 | CN1C(CSCC(F)(F)F)Nc2cc(Cl)c(S(N)(=O)=O)cc2S1(=O)=O (stereo not given) [polythiazide] | > 10 | > 10 | > 10 | > 10 | > 10 | 0 | 0 | 0 | 0 | 0 | 88.1 | 90.5 | 95.2 | 94.9 | 93 | 91.7 | 98.8 | 86.6 | 96.8 | 108 | 95.7 | 98.5 | 107 | 101 | 109 | 93.7 | 110 | 99.6 | 103 | 106 | 98.4 | 97.5 | 104 | 96.2 | 100
6 | CCCCOc1ccc(OCCCN2CCOCC2)cc1 [pramoxine] | > 10 | > 10 | > 10 | > 10 | > 10 | 0 | 0 | 0 | 0 | 0 | 105 | 109 | 97.8 | 95.8 | 98 | 103 | 97.3 | 98.8 | 102 | 103 | 104 | 99.1 | 87.1 | 95.1 | 102 | 97.1 | 98.3 | 98.1 | 94.7 | 98.9 | 105 | 105 | 104 | 102 | 99.3
7 | N#Cc1c[nH]c2c(C(=O)N3CCN(CCc4ccc(F)cc4)CC3)cccc12 [pruvanserin] | > 10 | > 10 | > 10 | > 10 | > 10 | 0 | 0 | 0 | 0 | 0 | 94.9 | 95.3 | 96.9 | 98.1 | 95.7 | 105 | 86.8 | 102 | 95.2 | 98.4 | 91.8 | 112 | 91.4 | 112 | 101 | 103 | 110 | 117 | 98.1 | 99.3 | 94 | 98.4 | 92.5 | 104 | 100
8 | O=c1c(-c2ccc(O)cc2)coc2c([C@@H]3O[C@H](CO)[C@@H](O)[C@H](O)[C@H]3O)c(O)ccc12 [puerarin] | > 10 | > 10 | > 10 | > 10 | > 10 | 0 | 0 | 0 | 0 | 0 | 98.4 | 99.8 | 96 | 98 | 101 | 99.7 | 99.5 | 99.9 | 107 | 103 | 89.3 | 92.3 | 97.5 | 89.6 | 95.6 | 94.4 | 102 | 94.8 | 107 | 98.2 | 99.7 | 95.2 | 96 | 94.6 | 100
9 | CCCN1CCC[C@@H]2Cc3nc(N)ncc3C[C@H]21 [quinelorane] | > 10 | > 10 | > 10 | > 10 | > 10 | 0 | 0 | 0 | 0 | 0 | 101 | 92.9 | 98.6 | 85.7 | 104 | 102 | 99.6 | 101 | 93.2 | 99 | 102 | 99 | 93.2 | 103 | 105 | 95.9 | 94.1 | 97.6 | 91.8 | 96.4 | 103 | 105 | 102 | 97.1 | 98.5
10 | COc1ccc(C2CNC(=O)C2)cc1OC1CCCC1 (stereo not given) [rolipram] | > 10 | > 10 | > 10 | > 10 | > 10 | 0 | 0.0667 ± 0.12 | 0 | 0 | 0 | 95.2 ± 7.2 | 96.4 ± 2.8 | 97.7 ± 5.3 | 98.8 ± 7.4 | 110 ± 4.9 | 93.6 ± 10 | 95.1 ± 8.9 | 94.4 ± 4.2 | 96.8 ± 4.5 | 102 ± 4.8 | 98.2 ± 12 | 97.6 ± 12 | 103 ± 5.5 | 98.4 ± 3.5 | 103 ± 1.6 | 102 ± 3.5 | 102 ± 6.4 | 101 ± 5.8 | 106 ± 5.5 | 101 ± 2.2 | 96.2 ± 1.5 | 97 ± 4.4 | 96.1 ± 2.3 | 99.1 ± 0.14 | 101 ± 2.9
11 | COc1cccc(CCc2ccccc2OCC(CN(C)C)OC(=O)CCC(=O)O)c1 (stereo not given) [sarpogrelate] | > 10 | > 10 | > 10 | > 10 | > 10 | 0 | 0 | 0 | 0 | 0 | 92.1 | 101 | 98.4 | 105 | 98.2 | 105 | 98.6 | 104 | 100 | 95.8 | 96.5 | 98.3 | 96.4 | 102 | 96.9 | 109 | 104 | 105 | 92.5 | 102 | 100 | 105 | 99.8 | 103 | 95.3
